# Measurements as given in patent US8530183B2, “Zinc sensors for cellular imaging” (The Board of Regents of the University of Texas System, priority 2010, dated 2013).
# pKd: −log10 of the molar value. “And” between values parts separate entries of the source, which are not always exact repeats. Equal values may be shown once. “Also recorded” adds a separate entry of the source. Read-outs that look alike come from different tables or passages of the source.
# How the values were obtained:
# INS-1 cells = assay: Response of membrane-anchored ZIMIR to extracellular Zn2+ and decay upon Zn2+ washout; type: cell-based, rat; details: INS-1 cells labeled with ZIMIR, EDTA 10 μM plus DPAS at low micromolar concentrations
# Method: FIGS. 5A-B. Membrane anchored ZIMIR reports changes of [Zn^2+]e. (FIG. 5A) Example fluorescence images (Excitation 488±7.5 nm, emission 530±20 nm) of INS-1 cells labeled with ZIMIR at different [Zn^2+]e. (FIG. 5B) Quantification of the average ZIMIR fluorescence intensity along the plasma membrane (IZIMIR(PM)).
# (FIG. 7A) Time courses of IZIMIR(PM) decay after washing INS-1 cells (initially bathed in FIBS containing 1 μM Zn^2+) with HBS containing EDTA (10 μM) and DPAS (0-8 μM). (FIG. 7B) ZIMIR imaging of insulin/Zn^2+ release of MIN6 cells bathed in SAB containing EDTA (10 μM) and DPAS (4 μM). Time courses of IZIMIR(PM) fluctuation of four separate regions of interest (ROI 1-4) and example ZIMIR images at different time points were shown (a-e; arrow heads highlighting local ZIMIR increases in separate ROIs at different time).
# To characterize the response of membrane anchored ZIMIR to changes of extracellular Zn^2+ concentration ([Zn^2+]), the inventors varied [Zn^2+]e from low nanomolar to micromolar, using Zn^2-1 buffers containing nitrilotriacetic acid (for [Zn^2+]e<100 nM) (Hirano et al., 2000) or histidine (for [Zn^2+]e. 100 nM) (Hauser and Tsien, 2007). After recording fluorescence images at different [Zn^2+]e levels, the inventors washed cells with a nominally Zn^2+ free SAB containing 0.2 mM DPAS and followed the decay of IZIMIR(PM).
# Upon membrane depolarization, ZIMIR signal increased immediately and reached a plateau before it gradually declined (FIGS. 6E-F). Unexpectedly, however, in some occasions, ZIMIR signal remained elevated even after the inventors lowered KCl concentration to the resting level (5 mM) (FIG. 9). […] In INS-1 beta cells labeled with ZIMIR, after recording ZIMIR fluorescence in solutions containing ˜1 μM of Zn2+, the inventors perifused cells with a nominally Zn^2+-free solution containing only EDTA (10 μM), or with both EDTA (10 μM) and different concentrations of DPAS.
# [1] = Competition assay of Zn2+ chelation kinetics (ZIMIR-C2 fluorescence decline after adding EDTA or DPAS); details: physiological salines, ZIMIR-C2 1 μM in Hanks Balanced Saline Solution
# Method: FIG. 10. […] In this competition assay, fluorescence intensity (Ex 490 nm, Em 525 nm) of ZIMIR-C2 (1 μM) in Hanks Balanced Saline Solution was recorded. The rate of fluorescence intensity decline after adding EDTA or DPAS reflects the kinetics of EDTA/Zn^2I or DPAS/Zn^2+ complexation.
# pancreatic islets = assay: Confocal imaging of dye uptake and insulin/Zn2+ release in pancreatic islets; type: cell-based, mouse; details: ZIMIR 2 μM for 25 min; mouse and human islets
# Method: FIGS. 8A-C. Imaging insulin/Zn^2+ release in islets by confocal laser scanning microscopy. (FIGS. 8A-B) Confocal images of mouse islets labeled with ZIMIR (FIG. 8A) or calcein/AM (FIG. 8B). (FIG. 8C) Confocal ZIMIR imaging of insulin/Zn^2+ release in a mouse islet bathed in SAB. Images from two example layers 15 μm apart before and 10 sec post KCl (40 mM) stimulation were shown.
# FIG. 11. ZIMIR rapidly labels cells of intact human islets. Representative CLSM images of a ZIMIR labeled human islet at three focal planes 20 μm apart.
# Islets labeling and ZIMIR imaging by confocal laser scanning microscopy. Experiments with rodent animals were carried out according to protocols approved by the Institutional Animal Care and Use Committee of University of Texas Southwestern Medical Center. Rodent islets were isolated from Sprague-Dawley rats or C57BL/6 mice after digesting exocrine tissues of pancreas using collagenase as described below. To image insulin release in islets, the inventors labeled islets with ZIMIR (final concentration 2 μM with 0.025% Pluronic) in SAB buffer for […]. Labeled islets were then transferred to an imaging dish that had been coated with 0.5% PuraMatrix peptide hydrogel (BD Biosciences, Cat # 354250). Islets adhered to the PuraMatrix hydrogel within 5 min. They then imaged ZIMIR fluorescence by confocal laser scanning microscopy using a LSM510 imaging system (Carl Zeiss) and a 40× oil immersion objective (Dakin and Li, 2007).
# Confocal imaging of ZIMIR uptake and insulin/Zn^2+ release in pancreatic islets. In addition to cultured cells, ZIMIR also rapidly and noninvasively labels cells in preparations such as dissected pancreatic islets. After loading islets with ZIMIR (2 μM) for 25 min, the inventors applied CLSM to track the distribution of ZIMIR in three dimensions (3D). […] The result confirmed that ZIMIR readily diffused through the interstitial space to reach interior cells, whereas calcein/AM was trapped by cells in the outer layer, unable to penetrate any deeper. After labeling, the inventors depolarized cells with high concentration of KCl.
# [2] = FluoZin-3, background; read-out: Zn^2+ dissociation constant Kd(Zn^2+); cited from earlier work
# [3] = FluoZin-3, background; read-out: Kd(Ca^2+); cited from earlier work
# [4] = Zn2+ titration of ZIMIR-C2 (fluorescence, NTA Zn2+ buffering system); type: binding
# Method: (§1) FIGS. 3A-D. (FIG. 3A) Absorption spectrum of ZIMIR-C2. (FIG. 3B) Zn^2+ dependent fluorescence enhancement of ZIMIR-C2. Zn^2+ concentrations (nM) were 0, 43, 140, 440, 840, 1640 and 6440 (from bottom to top). (FIG. 3C) Zn^2+ titration of ZIMIR-C2 as measured from its emission at 515 nm. The solid line represents the exponential fit. […] All measurements were performed in buffers containing 100 mM Hepes, pH 7.5 with 0.4 μM of ZIMIR-C2.
# Zn^2+ titration and ion selectivity of ZIMIR. To measure the Zn^2+ affinity of ZIMIR, we performed Zn2+ titration of ZIMIR-C2 (0.4 μM) using a Zn^2+ buffering system based on nitrilotriacetic acid (NTA) (Komatsu et al., 2005). The buffer contained 100 mM HEPES (pH 7.5), 10 mM NTA and varying concentrations of ZnSO4 (0-9 mM) to reach free Zn2+ concentration between 0.1 nM to 43 nM. Zn^2+ concentrations above 43 nM were not buffered. However, since the commercial Hepes always contains a trace amount of divalent metal (≦5 ppm), it was necessary to add a minimum amount of NTA to chelate the residual Zn^2+ present in the Hepes solution. […] From that point, increasing amount of ZnSO4 was added to reach higher Zn^2+ concentrations. […] To examine the Zn^2+ binding selectivity of ZIMIR against Ca^2+ or Mg^2+, we measured the fluorescence intensity of ZIMIR-C2 in a nominally Zn^2+ free solution containing 50 μM DPAS or in a solution containing 1 μM ZnCl2, with or without Ca^2+/Mg^2+ (1 mM).
# [5] = Zn2+ binding selectivity of ZIMIR-C2 against Ca2+ or Mg2+ (fluorescence intensity); details: Ca^2+ 1 mM, Mg^2+ 1 mM; with or without 1 μM ZnCl2
# Method: as §1
# Zn^2+ titration and ion selectivity of ZIMIR. To measure the Zn^2+ affinity of ZIMIR, we performed Zn2+ titration of ZIMIR-C2 (0.4 μM) using a Zn^2+ buffering system based on nitrilotriacetic acid (NTA) (Komatsu et al., 2005). The buffer contained 100 mM HEPES (pH 7.5), 10 mM NTA and varying concentrations of ZnSO4 (0-9 mM) to reach free Zn2+ concentration between 0.1 nM to 43 nM. Zn^2+ concentrations above 43 nM were not buffered. However, since the commercial Hepes always contains a trace amount of divalent metal (≦5 ppm), it was necessary to add a minimum amount of NTA to chelate the residual Zn^2+ present in the Hepes solution. […] To examine the Zn^2+ binding selectivity of ZIMIR against Ca^2+ or Mg^2+, we measured the fluorescence intensity of ZIMIR-C2 in a nominally Zn^2+ free solution containing 50 μM DPAS or in a solution containing 1 μM ZnCl2, with or without Ca^2+/Mg^2+ (1 mM).
# [6] = Absorption, fluorescence and solubility properties of ZIMIR-C2 in aqueous solution; type: physicochemical
# Method: as §1
# The inventors synthesized ZIMIR in a total of 8 steps (FIG. 2). […] The absorption maximum of ZIMIR-C2 centered around 493 nm with an extinction coefficient of 73,000 M-1 cm-1. At low nanomolar [Zn^2+], ZIMIR-C2 was nearly non-fluorescent (fluorescence quantum yield Qf (0 Zn^2+) =0.0032) (FIGS. 3A-D). Its fluorescence intensity increased with [Zn^2+]and reached a plateau at micromolar [Zn^2+], with an overall fluorescence enhancement of 70-fold upon Zn^2+ complexation (Qf (Zn^2+) =0.225), providing a Zn^2+ binding dissociation constant of 0.45 μM (FIG. 3C). To confirm that
molecule,measurement,setting,value
"O=S(=O)(O)CCN(Cc1ccccn1)Cc1ccccn1 [DPAS, 2-[Bis(2-pyridinylmethyl)amino]-ethanesulfonic acid]",increase of the rate of Zn^2+ dissipation from the plasma membrane,INS-1 cells,about one order of magnitude
same,Zn^2+ chelation kinetics compared with EDTA,[1],much faster kinetics than EDTA
calcein/AM [reference compound],"distribution of dye in islets (3D, CLSM)",pancreatic islets,only labeled cells of the superficial layers
COc1ccc(N(CC(=O)O)CC(=O)O)c(OCCOc2cc(-c3c4cc(F)c(=O)cc-4oc4cc(O)c(F)cc34)ccc2NCC(=O)O)c1 [FluoZin-3],pKd,[2],7.82
same,pKd,[3],~5.00
CCN(CC(=O)O)Cc1c2oc3c(CN(CC)CC(=O)O)c(O)ccc3c(-c3cc(NCCN(CCc4ccccn4)Cc4ccccn4)ccc3C(=O)O)c-2ccc1=O [ZIMIR-C2],pKd,"[4]; 0.4 μM ZIMIR-C2, 100 mM HEPES pH 7.5, two independent titrations, read-out: Kd(Zn^2+), independent Zn^2+ titrations",6.36 and 6.33
same,pKd,"[4]; FIG. 3C, emission at 515 nm, read-out: Zn^2+ binding dissociation constant",6.35
same,pKd,"[4]; average of two titrations, 100 mM HEPES pH 7.5, read-out: average Kd(Zn^2+)",6.35
same,overall fluorescence enhancement upon Zn^2+ complexation,[4]; plateau at micromolar [Zn^2+],70 fold
same,effect of Ca^2+ and Mg^2+ on fluorescence / Zn^2+ selectivity,[5],neither Ca^2+ nor Mg^2+ affected ZIMIR-C2 fluorescence; also recorded: binds Zn^2+ selectively against Ca^2+ (1 mM) and Mg^2+ (1 mM)
same,absorption maximum,"[6]; 100 mM Hepes, pH 7.5",around 493 nm
same,aqueous solubility,[6]; aqueous solutions,highly soluble
same,extinction coefficient,[6]; at absorption maximum,"73,000 M-1 cm-1"
same,fluorescence quantum yield Qf (0 Zn^2+),[6]; low nanomolar [Zn^2+],0.0032
same,fluorescence quantum yield Qf (Zn^2+),"[6]; upon Zn^2+ complexation, micromolar [Zn^2+]",0.225
